Test results as given in patent US20260325533A1, “CDK INHIBITOR COMPOUNDS” (ALEKSIA THERAPEUTICS, INC., priority 2023, published 2026).
Like-named read-outs stand apart in the source and are kept apart here.

Tests used:
Format in all cases: biochemical
[1] = biological target: CDK4/CCND3 (Homo sapiens, UniProt P11802); assay: CDK4 homogeneous time-resolved fluorescence (HTRF) kinase assay; details: CDK4/CCND
Procedure, shortened: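 IC50 values were derived from 11-point half-log dilutions, usually starting at 10 μM. Compound was first held for 20 min at 23 °C with 1.5 nM CDK4/CCND3. 1 mM ATP and 50 nM ULight-eIF4E-BP1 (Thr37/46) substrate were then added for 60 min, and the TR-FRET 665 nm signal was measured after EDTA stop and Eu-anti-phospho-4E-BP1 detection.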

[2] = biological target: CDK6/CCND1 (Homo sapiens, UniProt Q00534); assay: CDK6 homogeneous time-resolved fluorescence (HTRF) kinase assay; details: CDK6/CCND
Chain of CDK6/CCND1 (Q00534 whole entry): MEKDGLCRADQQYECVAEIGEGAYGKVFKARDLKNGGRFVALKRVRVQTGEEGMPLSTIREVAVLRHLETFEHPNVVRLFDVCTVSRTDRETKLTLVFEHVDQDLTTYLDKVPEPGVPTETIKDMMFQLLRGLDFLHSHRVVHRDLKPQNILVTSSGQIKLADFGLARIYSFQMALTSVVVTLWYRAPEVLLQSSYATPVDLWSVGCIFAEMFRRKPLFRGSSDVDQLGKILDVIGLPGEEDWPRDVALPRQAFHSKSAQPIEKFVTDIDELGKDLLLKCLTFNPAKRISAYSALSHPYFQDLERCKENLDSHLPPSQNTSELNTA
Chain of CDK6/CCND1 (P24385 whole entry partner): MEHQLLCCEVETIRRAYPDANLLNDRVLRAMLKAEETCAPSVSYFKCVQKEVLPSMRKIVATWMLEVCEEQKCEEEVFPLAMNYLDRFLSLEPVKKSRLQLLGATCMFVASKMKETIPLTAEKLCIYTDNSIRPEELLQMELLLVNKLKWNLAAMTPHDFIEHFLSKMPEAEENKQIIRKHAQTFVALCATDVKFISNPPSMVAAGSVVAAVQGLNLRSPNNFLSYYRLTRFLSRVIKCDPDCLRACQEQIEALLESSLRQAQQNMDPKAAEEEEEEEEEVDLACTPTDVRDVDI
Procedure, shortened: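 Recombinant CDK6/CCND1 (1 nM final) was preincubated with compound for 20 min at 23 °C in HEPES buffer with MgCl2, EGTA, DTT and Tween 20. Kinase reaction then ran 60 min at 23 °C with 1 mM ATP and 50 nM ULight-4E-BP1 (Thr37/46) peptide, and was stopped with EDTA.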

[3] = biological target: CDK1/CCNB1 (Homo sapiens, UniProt P06493); assay: CDK1 homogeneous time-resolved fluorescence (HTRF) kinase assay; details: CDK1/CCNB
Chain of CDK1/CCNB1 (P06493 whole entry): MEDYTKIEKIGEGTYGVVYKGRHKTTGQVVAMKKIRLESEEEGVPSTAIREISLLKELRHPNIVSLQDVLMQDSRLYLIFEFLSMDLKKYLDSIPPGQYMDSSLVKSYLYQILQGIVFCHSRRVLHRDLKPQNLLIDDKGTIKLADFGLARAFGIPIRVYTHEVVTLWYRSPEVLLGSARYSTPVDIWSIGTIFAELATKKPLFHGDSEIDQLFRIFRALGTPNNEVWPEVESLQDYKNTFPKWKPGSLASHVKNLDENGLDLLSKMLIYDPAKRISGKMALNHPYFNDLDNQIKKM
Chain of CDK1/CCNB1 (P14635 whole entry partner): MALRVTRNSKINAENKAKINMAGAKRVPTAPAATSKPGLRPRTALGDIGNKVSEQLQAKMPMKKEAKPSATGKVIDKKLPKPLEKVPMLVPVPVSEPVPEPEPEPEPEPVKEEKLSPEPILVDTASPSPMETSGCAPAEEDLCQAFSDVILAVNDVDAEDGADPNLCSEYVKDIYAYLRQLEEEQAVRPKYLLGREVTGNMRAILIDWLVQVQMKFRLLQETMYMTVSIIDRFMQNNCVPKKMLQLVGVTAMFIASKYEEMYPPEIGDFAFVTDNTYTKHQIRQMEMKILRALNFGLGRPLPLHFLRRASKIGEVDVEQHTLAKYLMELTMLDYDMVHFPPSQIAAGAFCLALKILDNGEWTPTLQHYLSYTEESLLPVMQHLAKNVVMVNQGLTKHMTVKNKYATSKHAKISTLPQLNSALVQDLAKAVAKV
Procedure, shortened: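 CDK1/CCNB1 0.5 nM + cpd, 20 min 23 °C; add 1 mM ATP, 50 nM ULight-4E-BP1 peptide, 60 min 23 °C; stop 10 mM EDTA; 2 nM Eu-Ab, 60 min; HTRF 665 nm. 11-pt half-log, top 10 μM typical; IC50.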

[4] = biological target: CDK2/CCNE1 (Homo sapiens, UniProt P24941); assay: CDK2 homogeneous time-resolved fluorescence (HTRF) kinase assay; details: CDK2/CCNE
Procedure, shortened: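 IC50 derived from 11-point, half-log dilutions (usually top 10 μM) of compound, 1% DMSO. Kinase (3 nM CDK2/CCNE1) was preincubated with compound 20 min, then phosphorylated 50 nM ULight-4E-BP1 peptide at 1 mM ATP for 60 min, 23 °C. Europium-antibody TR-FRET read after EDTA stop.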

[5] = x = IC50 >250 nM, read-out: CDK4/CCND IC50 (>250 nM column)
[6] = x = IC50 >250 nM, read-out: CDK6/CCND IC50 (>250 nM column)
[7] = x = IC50 >250 nM, read-out: CDK1/CCNB IC50 (>250 nM column)
[8] = x = IC50 25-250 nM, read-out: CDK2/CCNE IC50 (25-250 nM)
[9] = x = IC50 25-250 nM, read-out: CDK4/CCND IC50 (25-250 nM)
[10] = x = IC50 25-250 nM, read-out: CDK6/CCND IC50 (25-250 nM)
[11] = x = IC50 25-250 nM, read-out: CDK1/CCNB IC50 (25-250 nM)
[12] = x = IC50 <25 nM, read-out: CDK2/CCNE IC50 (<25 nM)
[13] = 25-250 nM, read-out: CDK4/CCND IC50, 25-250 nM
[14] = 25-250 nM, 1 mM ATP, read-out: CDK6/CCND IC50, 25-250 nM
[15] = >250 nM, read-out: CDK1/CCNB IC50 >250 nM
[16] = <25 nM, read-out: CDK2/CCNE IC50, <25 nM
[17] = >250 nM, read-out: CDK4/CCND IC50, >250 nM
[18] = >250 nM, 1 mM ATP, read-out: CDK6/CCND IC50, >250 nM

Chain of CDK4/CCND3 (P11802 whole entry): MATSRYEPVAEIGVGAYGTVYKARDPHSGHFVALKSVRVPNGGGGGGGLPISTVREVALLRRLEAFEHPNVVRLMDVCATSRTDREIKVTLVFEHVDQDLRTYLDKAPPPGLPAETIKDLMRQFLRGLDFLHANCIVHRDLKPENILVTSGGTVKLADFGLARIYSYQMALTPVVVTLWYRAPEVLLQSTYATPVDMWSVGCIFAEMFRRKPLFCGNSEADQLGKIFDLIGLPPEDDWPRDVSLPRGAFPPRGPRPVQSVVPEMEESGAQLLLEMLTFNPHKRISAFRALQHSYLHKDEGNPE
Chain of CDK4/CCND3 (P30281 whole entry partner): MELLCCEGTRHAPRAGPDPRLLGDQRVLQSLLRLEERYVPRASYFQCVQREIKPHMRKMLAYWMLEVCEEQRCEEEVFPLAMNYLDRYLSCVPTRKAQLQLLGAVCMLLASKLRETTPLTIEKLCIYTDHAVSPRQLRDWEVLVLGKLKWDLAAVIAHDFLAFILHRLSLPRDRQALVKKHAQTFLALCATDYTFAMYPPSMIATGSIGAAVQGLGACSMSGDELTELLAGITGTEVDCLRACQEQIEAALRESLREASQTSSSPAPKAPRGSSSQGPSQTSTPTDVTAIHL

Row | IC50 [1, 5] | IC50 [2, 6] | IC50 [3, 7] | IC50 [2, 14] | IC50 [3, 15] | IC50 [4, 16] | Structure (SMILES) | also measured
1 | > 250 nM | > 250 nM | > 250 nM | – | – | – | CCS(=N)(=O)c1ccc(Nc2cc3c(C#Cc4cccnc4N)nccc3cn2)cc1 (racemic) [Ex 489, (4-((5-((2-aminopyridin-3-yl)ethynyl)-2,6-naphthyridin-3-yl)amino)phenyl)(ethyl)(imino)-l6-sulfanone] | IC50 [4, 8]: 25 to 250 nM
2 | – | > 250 nM | – | – | – | – | CS(=N)(=O)c1ccc(Nc2cc3c(C#Cc4ccc5oc(=O)[nH]c5c4)nccc3cn2)cc1 (racemic) [Ex 491, 5-((7-((4-(S-methylsulfonimidoyl)phenyl)amino)-2,6-naphthyridin-1-yl)ethynyl)benzo[d]oxazol-2(3H)-one] | IC50 [1, 9]: 25 to 250 nM; IC50 [2, 10]: 25 to 250 nM; IC50 [3, 11]: 25 to 250 nM; IC50 [4, 12]: < 25 nM
3 | > 250 nM | > 250 nM | > 250 nM | – | – | – | CS(=N)(=O)c1ccc(Nc2cc3c(C#Cc4ccc(=O)[nH]n4)nccc3cn2)cc1 (racemic) [Ex 497, 6-((7-((4-(S-methylsulfonimidoyl)phenyl)amino)-2,6-naphthyridin-1-yl)ethynyl)pyridazin-3(2H)-one] | IC50 [4, 12]: < 25 nM
4 | > 250 nM | > 250 nM | > 250 nM | – | – | – | CS(=N)(=O)c1ccc(Nc2cc3c(C#Cc4ccc(C#N)cc4)nccc3cn2)cc1 (racemic) [Ex 526, 4-((7-((4-(S-methylsulfonimidoyl)phenyl)amino)-2,6-naphthyridin-1-yl)ethynyl)benzonitrile] | IC50 [4, 8]: 25 to 250 nM
5 | > 250 nM | – | > 250 nM | – | – | – | CC(CCO)N1CCc2cc(-c3nccc4cnc(Nc5ccc(S(C)(=O)=O)cc5)cc34)ccc2C1 (racemic) [Ex 619, 3-(6-(7-((4-(methylsulfonyl)phenyl)amino)-2,6-naphthyridin-1-yl)-3,4-dihydroisoquinolin-2(1H)-yl)butan-1-ol] | IC50 [2, 10]: 25 to 250 nM; IC50 [4, 12]: < 25 nM
6 | – | – | > 250 nM | – | – | – | CC(O)CN1CCc2cc(-c3nccc4cnc(Nc5ccc(S(C)(=O)=O)cc5)cc34)ccc2C1 (racemic) [Ex 628, 1-(6-(7-((4-(methylsulfonyl)phenyl)amino)-2,6-naphthyridin-1-yl)-3,4-dihydroisoquinolin-2(1H)-yl)propan-2-ol] | IC50 [1, 9]: 25 to 250 nM; IC50 [2, 10]: 25 to 250 nM; IC50 [4, 12]: < 25 nM
7 | > 250 nM | > 250 nM | > 250 nM | – | – | – | Cn1cc(C2CCN(c3nccc4cnc(Nc5ccc(S(C)(=O)=O)cc5)cc34)C2)cn1 (racemic) [Ex 654, 5-(3-(1-methyl-1H-pyrazol-4-yl)pyrrolidin-1-yl)-N-(4-(methylsulfonyl)phenyl)-2,6-naphthyridin-3-amine] | IC50 ([4]; x = IC50 >250 nM, read-out: CDK2/CCNE IC50 (>250 nM column)): > 250 nM
8 | – | – | – | – | – | – | Cc1c(-c2nccc3cnc(Nc4ccc(S(C)(=O)=O)cc4)cc23)ccc2c1cnn2CC(C)O (racemic) [Ex 672, 1-(4-methyl-5-(7-((4-(methylsulfonyl)phenyl)amino)-2,6-naphthyridin-1-yl)-1H-indazol-1-yl)propan-2-ol] | IC50 [1, 9]: 25 to 250 nM; IC50 [2, 10]: 25 to 250 nM; IC50 [3, 11]: 25 to 250 nM; IC50 [4, 12]: < 25 nM
9 | > 250 nM | > 250 nM | > 250 nM | – | – | – | Cc1c(-c2nccc3cnc(Nc4ccc(S(C)(=O)=O)cc4)cc23)ccc2nn(CC(C)O)cc12 (racemic) [Ex 675, 1-(4-methyl-5-(7-((4-(methylsulfonyl)phenyl)amino)-2,6-naphthyridin-1-yl)-2H-indazol-2-yl)propan-2-ol] | IC50 [4, 8]: 25 to 250 nM
10 | – | – | – | 25 to 250 nM | > 250 nM | < 25 nM | Cc1c(-c2nccc3cnc(Nc4ccc(S(=O)(=O)NC5CCCN(CCO)C5)cc4)cc23)ccc2c1cnn2CC(C)(C)O (racemic) [Ex 760, 4-((5-(1-(2-hydroxy-2-methylpropyl)-4-methyl-1H-indazol-5-yl)-2,6-naphthyridin-3-yl)amino)-N-(1-(2-hydroxyethyl)piperidin-3-yl)benzenesulfonamide] | IC50 [1, 13]: 25 to 250 nM
11 | – | – | – | 25 to 250 nM | > 250 nM | < 25 nM | Cc1c(-c2nccc3cnc(Nc4ccc(S(=O)(=O)NC5CCCN(C)C5)cc4)cc23)ccc2c1cnn2CC(C)(C)O (racemic) [Ex 761, 4-((5-(1-(2-hydroxy-2-methylpropyl)-4-methyl-1H-indazol-5-yl)-2,6-naphthyridin-3-yl)amino)-N-(1-methylpiperidin-3-yl)benzenesulfonamide] | IC50 [1, 13]: 25 to 250 nM
12 | – | – | – | 25 to 250 nM | > 250 nM | < 25 nM | Cc1c(-c2nccc3cnc(Nc4ccc(S(=O)(=O)NC5CCOC5)cc4)cc23)ccc2c1cnn2CC(C)(C)O (racemic) [Ex 770, 4-((5-(1-(2-hydroxy-2-methylpropyl)-4-methyl-1H-indazol-5-yl)-2,6-naphthyridin-3-yl)amino)-N-(tetrahydrofuran-3-yl)benzenesulfonamide] | IC50 [1, 13]: 25 to 250 nM
13 | – | – | – | 25 to 250 nM | > 250 nM | < 25 nM | Cc1c(-c2nccc3cnc(Nc4ccc(S(=O)(=O)NC5CCN(C)C5)cc4)cc23)ccc2c1cnn2CC(C)(C)O (racemic) [Ex 771, 4-((5-(1-(2-hydroxy-2-methylpropyl)-4-methyl-1H-indazol-5-yl)-2,6-naphthyridin-3-yl)amino)-N-(1-methylpyrrolidin-3-yl)benzenesulfonamide] | IC50 [1, 13]: 25 to 250 nM
14 | – | – | – | 25 to 250 nM | – | < 25 nM | Cc1c(-c2nccc3cnc(Nc4ccc(S(=O)(=O)NC5CCNC5)cc4)cc23)ccc2c1cnn2CC(C)(C)O (racemic) [Ex 791, 4-((5-(1-(2-hydroxy-2-methylpropyl)-4-methyl-1H-indazol-5-yl)-2,6-naphthyridin-3-yl)amino)-N-(pyrrolidin-3-yl)benzenesulfonamide] | IC50 ([1]; <25 nM, read-out: CDK4/CCND IC50, column <25 nM): < 25 nM; IC50 ([3]; 25-250 nM, read-out: CDK1/CCNB IC50, 25-250 nM): 25 to 250 nM
15 | – | – | – | 25 to 250 nM | > 250 nM | < 25 nM | Cc1c(-c2nccc3cnc(Nc4ccc(S(=O)(=O)NC5CCCNC5)cc4)cc23)ccc2c1cnn2CC(C)(C)O (racemic) [Ex 792, 4-((5-(1-(2-hydroxy-2-methylpropyl)-4-methyl-1H-indazol-5-yl)-2,6-naphthyridin-3-yl)amino)-N-(piperidin-3-yl)benzenesulfonamide] | IC50 [1, 13]: 25 to 250 nM
16 | – | – | – | – | > 250 nM | < 25 nM | COc1ccc(C(=O)N2CCC(Nc3cc4c(-c5ccc6c(cnn6CC(C)(C)O)c5C)nccc4cn3)C2)cc1 (racemic) [Ex 884, (3-((5-(1-(2-hydroxy-2-methylpropyl)-4-methyl-1H-indazol-5-yl)-2,6-naphthyridin-3-yl)amino)pyrrolidin-1-yl)(4-methoxyphenyl)methanone] | IC50 [1, 17]: > 250 nM; IC50 [2, 18]: > 250 nM
17 | – | – | – | – | > 250 nM | < 25 nM | Cc1c(-c2nccc3cnc(NC4CCN(C(=O)c5ccccc5)C4)cc23)ccc2c1cnn2CC(C)(C)O (racemic) [Ex 885, (3-((5-(1-(2-hydroxy-2-methylpropyl)-4-methyl-1H-indazol-5-yl)-2,6-naphthyridin-3-yl)amino)pyrrolidin-1-yl)(phenyl)methanone] | IC50 [1, 17]: > 250 nM; IC50 [2, 18]: > 250 nM
18 | – | – | – | – | > 250 nM | < 25 nM | Cc1c(-c2nccc3cnc(NC4CCN(C(=O)c5ccc(Cl)cc5)C4)cc23)ccc2c1cnn2CC(C)(C)O (racemic) [Ex 903, (4-chlorophenyl)(3-((5-(1-(2-hydroxy-2-methylpropyl)-4-methyl-1H-indazol-5-yl)-2,6-naphthyridin-3-yl)amino)pyrrolidin-1-yl)methanone] | IC50 [1, 17]: > 250 nM; IC50 [2, 18]: > 250 nM
